Test results reported in patent US20030148483A1, “Method of removing residual enzymes in enzyme microencapsulation” (priority 2002, published 2003).

Legend:
[1] = tested on: microencapsulated lactase; assay: Effect of ozone treatment on the activity of microencapsulated lactase (heating method, ONPG); assay type: biochemical; settings: initial activity 100%
Protocol: With an aim to investigate effect of ozone treatment on microencapsulated lactase, microcapsules containing lactase were collected from the ozone-treated dispersion fluid prepared in Examples 2 to 4 by centrifugation, and the activity of microencapsulated lactase was measured using a heating method among yield analysis methods disclosed in Korean Pat. No. 88465.
0.5 ml of the resulting dispersion fluid containing microcapsules was mixed with 2 ml of 0.05 M ONPG pre-heated at 50° C. for 10 min. After 5 min, the reaction was terminated with adding 0.5 ml of 0.5M Na2CO3 thereto, and absorbance at 420 nm was measured using a spectrophotometer (Beckman Du 650 spectrophotometer, Beckman Instrument, Inc., Fullerton, Calif., USA). The results are given in FIG. 3, where the initial activity of lactase is 100%.
Yield of microcapsule=1−Activity of uncapsulated lactase/ Initial activity of lactase×100

uncapsulated lactase = assay: Assay for the activity of uncapsulated lactase after ozone treatment (ONPG, absorbance at 420 nm); assay type: biochemical; settings: initial activity 100%
Protocol: After centrifuging the dispersion fluid of microcapsules prepared by ozone treatment in Examples 2 to 4 at 24,900×g for 10 min, the resulting supernatants were assayed for activity of uncapsulated lactase.
A portion of each of the supernatants was primarily filtered using Whatman No. 540 (Whatman International Ltd., Maidstone, England), and then further filtered using an 1 μm membrane filter (Whatman International Ltd., Maidstone, England).
Thereafter, 0.5 ml of the filtered supernatant was mixed with 2 ml of a solution of 0.05 M ONPG (Ortho-nitrophenol-β-D-galactopyranoside, Sigma Chemical Co., St. Louis, Mo. USA) preheated at 37° C. for 15 min, followed by incubation for 20 min at 37° C. After 20 min, the reaction was terminated with adding 0.5 ml of a 0.5 M Na2CO3 solution (Shinoyo Pure Chemical Co., Ltd., Osaka, Japan) thereto.
Absorbance at 420 nm was measured using a spectrophotometer (Beckman Du 650 spectrophotometer; Beckman Instrument, Inc, Fullerton, Calif., USA), and the results are given in FIG. 2.

Staphylococcus aureus = assay: Effect of ozone treatment on growth of microorganisms (colony count); assay type: cell-based; settings: ozone 10 ppm, 2° C.; for viability: 0 min = 100
Protocol: (§1) Microorganisms were treated with ozone of 10 ppm, at which concentration much of untrapped lactase loses its activity, while microencapsulated lactase retains effective activity, and effect of ozone on the growth of microorganisms was investigated.
(§2) Pathogenic microorganisms found especially in food, including Escherichia coli, Bacillus subtilis, Staphylococcus aureus, Salmonella typhimurium, Pseudomonas aeruginosa, and Enterobacter aerogenes, were obtained from Korean Culture Center of Microorganisms (Seoul, Korea) and stored in broth containing 50% glycerol at −70° C. until use. The five strains, except S. aureus, were cultured in nutrient broth (NB), and S. aureus was cultured in tryptic soy broth (TSB) for 24 hours at 37° C.
(§3) Trace amounts of the cultured microorganisms were mixed with the dispersion fluid of microcapsules, followed by treatment of ozone of 10 ppm at 2° C. under a flow rate of 10 L/min using an ozone generator.
(§4) After being serially diluted, the ozone-treated microorganisms were plated onto nutrient agar broth.

Pseudomonas aeruginosa = assay: as above; assay type: cell-based; settings: ozone 10 ppm, 2° C.; for viability: 0 min = 100
Protocol: as §1, §2, §3, §4

Escherichia coli = assay: as above; assay type: cell-based; settings: ozone 10 ppm, 2° C.; for viability: 0 min = 100
Protocol: as §1, §2, §3, §4

Enterobacter aerogenes = assay: as above; assay type: cell-based; settings: ozone 10 ppm, 2° C.; for viability: 0 min = 100
Protocol: as §1, §2, §3, §4

Bacillus subtilis = assay: as above; assay type: cell-based; settings: ozone 10 ppm, 2° C.; for viability: 0 min = 100
Protocol: as §1, §2, §3, §4

Salmonella typhimurium = assay: as above; assay type: cell-based; settings: ozone 10 ppm, 2° C.; for viability: 0 min = 100
Protocol: as §1, §2, §3, §4

Question: With O=[O+][O-] [ozone] as the molecule, how does the “activity of lactase entrapped into microcapsules” value ([1]; 1 ppm of ozone, 1 min) read?
Answer: about 97%

Question: What about the “activity of lactase entrapped into microcapsules” value ([1]; 1 ppm of ozone, 5 min) of the same molecule?
Answer: 91%

Question: And the “activity of lactase entrapped into microcapsules” value ([1]; 1 ppm of ozone, 10 min)?
Answer: 74%

Question: And the “activity of lactase entrapped into microcapsules” value ([1]; 5 ppm of ozone, 1 min)?
Answer: 96%

Question: And the “activity of lactase entrapped into microcapsules” value ([1]; 5 ppm of ozone, 5 min)?
Answer: 82%

Question: What about the “activity of lactase entrapped into microcapsules” value ([1]; 5 ppm of ozone, 10 min) of the same molecule?
Answer: 67%

Question: And the “activity of lactase entrapped into microcapsules” value ([1]; 10 ppm of ozone, 1 min)?
Answer: 93%

Question: What about the “activity of lactase entrapped into microcapsules” value ([1]; 10 ppm of ozone, 5 min) of the same molecule?
Answer: 79%

Question: What about the “activity of lactase entrapped into microcapsules” value ([1]; 10 ppm of ozone, 10 min) of the same molecule?
Answer: 65%

Question: What about the “activity of lactase (uncapsulated)” value (uncapsulated lactase; 1 ppm of ozone, 1 min) of the same molecule?
Answer: about 94.3%

Question: And the “activity of lactase (uncapsulated)” value (uncapsulated lactase; 1 ppm of ozone, 5 min)?
Answer: 56.4%

Question: What about the “activity of lactase (uncapsulated)” value (uncapsulated lactase; 1 ppm of ozone, 10 min) of the same molecule?
Answer: 26.5%

Question: And the “activity of lactase (uncapsulated)” value (uncapsulated lactase; 5 ppm of ozone, 1 min)?
Answer: 82%

Question: What about the “activity of lactase (uncapsulated)” value (uncapsulated lactase; 5 ppm of ozone, 5 min) of the same molecule?
Answer: 42.8%

Question: What about the “activity of lactase (uncapsulated)” value (uncapsulated lactase; 5 ppm of ozone, 10 min) of the same molecule?
Answer: 20%

Question: And the “activity of lactase (uncapsulated)” value (uncapsulated lactase; 10 ppm of ozone, 1 min)?
Answer: 57.8%

Question: What about the “activity of lactase (uncapsulated)” value (uncapsulated lactase; 10 ppm of ozone, 5 min) of the same molecule?
Answer: 32.8%

Question: What about the “activity of lactase (uncapsulated)” value (uncapsulated lactase; 10 ppm of ozone, 10 min) of the same molecule?
Answer: 9.7%

Question: And the colonies counted (Staphylococcus aureus; treatment time 0.5 min)?
Answer: 1.0 × 10^8 CFU/ml

Question: What about the viability (Staphylococcus aureus; treatment time 0.5 min) of the same molecule?
Answer: (15) %

Question: What about the colonies counted (Staphylococcus aureus; treatment time 1 min) of the same molecule?
Answer: 6.4 × 10^7 CFU/ml

Question: And the viability (Staphylococcus aureus; treatment time 1 min)?
Answer: (9.4) %

Question: What about the colonies counted (Staphylococcus aureus; treatment time 5 min) of the same molecule?
Answer: 1.2 × 10^7 CFU/ml

Question: What about the viability (Staphylococcus aureus; treatment time 5 min) of the same molecule?
Answer: (1.8) %

Question: And the colonies counted (Staphylococcus aureus; treatment time 10 min)?
Answer: 1.1 × 10^5 CFU/ml

Question: And the viability (Staphylococcus aureus; treatment time 10 min)?
Answer: (0.01) %

Question: What about the colonies counted (Pseudomonas aeruginosa; treatment time 0.5 min) of the same molecule?
Answer: 1.2 × 10^8 CFU/ml

Question: And the viability (Pseudomonas aeruginosa; treatment time 0.5 min)?
Answer: (35) %

Question: What about the colonies counted (Pseudomonas aeruginosa; treatment time 1 min) of the same molecule?
Answer: 7.5 × 10^7 CFU/ml

Question: What about the viability (Pseudomonas aeruginosa; treatment time 1 min) of the same molecule?
Answer: 22%

Question: What about the colonies counted (Pseudomonas aeruginosa; treatment time 5 min) of the same molecule?
Answer: 3.6 × 10^6 CFU/ml

Question: And the viability (Pseudomonas aeruginosa; treatment time 5 min)?
Answer: 1%

Question: And the colonies counted (Pseudomonas aeruginosa; treatment time 10 min)?
Answer: 0 CFU/ml

Question: What about the viability (Pseudomonas aeruginosa; treatment time 10 min) of the same molecule?
Answer: (0) %

Question: What about the colonies counted (Escherichia coli; treatment time 0.5 min) of the same molecule?
Answer: 8.9 × 10^7 CFU/ml

Question: And the viability (Escherichia coli; treatment time 0.5 min)?
Answer: 3.7%

Question: And the colonies counted (Escherichia coli; treatment time 1 min)?
Answer: 3.1 × 10^7 CFU/ml

Question: And the viability (Escherichia coli; treatment time 1 min)?
Answer: (1.3) %

Question: And the colonies counted (Escherichia coli; treatment time 5 min)?
Answer: 9.0 × 10^6 CFU/ml

Question: And the viability (Escherichia coli; treatment time 5 min)?
Answer: (0.3) %

Question: And the colonies counted (Escherichia coli; treatment time 10 min)?
Answer: 0 CFU/ml

Question: And the viability (Escherichia coli; treatment time 10 min)?
Answer: (0) %

Question: And the colonies counted (Enterobacter aerogenes; treatment time 0.5 min)?
Answer: 5.4 × 10^6 CFU/ml

Question: What about the viability (Enterobacter aerogenes; treatment time 0.5 min) of the same molecule?
Answer: 38%

Question: What about the colonies counted (Enterobacter aerogenes; treatment time 1 min) of the same molecule?
Answer: 1.0 × 10^6 CFU/ml

Question: And the viability (Enterobacter aerogenes; treatment time 1 min)?
Answer: (7.1) %

Question: What about the colonies counted (Enterobacter aerogenes; treatment time 5 min) of the same molecule?
Answer: 2.4 × 10^5 CFU/ml

Question: And the viability (Enterobacter aerogenes; treatment time 5 min)?
Answer: (1.7) %

Question: What about the colonies counted (Enterobacter aerogenes; treatment time 10 min) of the same molecule?
Answer: 0 CFU/ml

Question: And the viability (Enterobacter aerogenes; treatment time 10 min)?
Answer: (0) %

Question: What about the colonies counted (Bacillus subtilis; treatment time 0.5 min) of the same molecule?
Answer: 9.6 × 10^7 CFU/ml

Question: What about the viability (Bacillus subtilis; treatment time 0.5 min) of the same molecule?
Answer: 60%

Question: And the colonies counted (Bacillus subtilis; treatment time 1 min)?
Answer: 2.2 × 10^7 CFU/ml

Question: What about the viability (Bacillus subtilis; treatment time 1 min) of the same molecule?
Answer: (14) %

Question: What about the colonies counted (Bacillus subtilis; treatment time 5 min) of the same molecule?
Answer: 6.0 × 10^6 CFU/ml

Question: What about the viability (Bacillus subtilis; treatment time 5 min) of the same molecule?
Answer: (3.7) %

Question: What about the colonies counted (Bacillus subtilis; treatment time 10 min) of the same molecule?
Answer: 0 CFU/ml

Question: And the viability (Bacillus subtilis; treatment time 10 min)?
Answer: (0) %

Question: What about the colonies counted (Salmonella typhimurium; treatment time 0.5 min) of the same molecule?
Answer: 8.4 × 10^8 CFU/ml

Question: And the viability (Salmonella typhimurium; treatment time 0.5 min)?
Answer: 34%

Question: And the colonies counted (Salmonella typhimurium; treatment time 1 min)?
Answer: 1.1 × 10^7 CFU/ml

Question: What about the viability (Salmonella typhimurium; treatment time 1 min) of the same molecule?
Answer: 0.4%

Question: What about the colonies counted (Salmonella typhimurium; treatment time 5 min) of the same molecule?
Answer: 1.5 × 10^6 CFU/ml

Question: What about the viability (Salmonella typhimurium; treatment time 5 min) of the same molecule?
Answer: (0.06) %

Question: And the colonies counted (Salmonella typhimurium; treatment time 10 min)?
Answer: 0 CFU/ml

Question: And the viability (Salmonella typhimurium; treatment time 10 min)?
Answer: (0) %
